Results on six compounds are retold here after ChEMBL document CHEMBL1201862, “PubChem BioAssay data set” (2004).

Active and inactive are the calls of the source.

Series [1] deals with HEK293. The experiment in a line: NOD1 signaling inhibitors, primary screen, cell-based, luminescence, uHTS (AID 1578). The note with it: Homo sapiens. In kind it is functional.
Series [2] relates to HEK293. The experiment in a line: cells. Type of series: functional, cell-based. The conditions noted are these: Homo sapiens.
In series [3] the test system is HEK293. The experiment in a line: cells. Type of series: functional, cell-based. The conditions noted are these: Homo sapiens. The source holds these as a separate data set.
The test system of series [4] is HEK293. The experiment in a line: NOD2 signaling inhibitors in MDP-stimulated cells, cell-based, uHTS, luminescence (AID 2001). Type of series: functional. The conditions noted are these: Homo sapiens.
Series [5] relates to HEK293. The experiment in a line: cells. The note with it: Homo sapiens.
Series [6] has as its system HEK293. The experiment in a line: cells. The conditions noted are these: Homo sapiens. The source holds these as a separate data set.
Series [7] can be described thus: insulin promoter down-regulators in MIN6 cells, imaging, high-content screening, mouse beta cells (AID 1628). Type of series: functional.
The nature of series [8]: cytotoxicity in MIN6 insulinoma cells, dose response, cytotoxicity control, cell-based, mouse insulinoma (AID 2122).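 Also: confirmatory high-throughput counterscreen run to flag cytotoxic compounds; mouse MIN-6 beta cells carrying an insulin promoter eGFP reporter.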 In kind it is functional.
The nature of series [9]: microbe, parasite or virus in culture. Type of series: functional. The conditions noted are these: Mycobacterium tuberculosis.
A short description of series [10]: growth suppression of PTEN-null colon cells, dose response, cell-based, HCT116 PTEN knockout (AID 1047).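 Also: HCT116 colon tumor cells with PTEN knocked out; cells exposed to compound for 60 hours before readout; potency for loss of cell viability measured by luminescence.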 In kind it is functional.
A short description of series [11]: growth suppression of beta-catenin-knockout colon cells, dose response, cell-based, HCT116, human colon tumor (AID 1045).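 Also: HCT116 colon tumor cells with beta catenin knocked out; cells exposed to compound for 60 hours.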 In kind it is functional.
Another series has as its system INS1. The experiment in a line: beta cell apoptosis inhibitors, cytokine rescue, dose response, luminescence, retest (AID 449756).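 Also: cell death triggered by IL-1 beta plus TNF-alpha plus IFN-gamma mixture; protective hits raise ATP signal compared with cytokine alone wells.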 The note with it: Rattus norvegicus. In kind it is functional, cell-based.
The nature of series [12]: ZM109 Env clade C HIV-1 fusion inhibitors, dose response, HeLa effector, CEM target cells, luciferase, cherry-pick (AID 652058). In kind it is functional, cell-based.
Series [13] is described as follows: inhibitors of clade B AD8 Env fusion, dose response, cell-based, cherry-pick (AID 652062).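 Also: luciferase signal from cell-cell fusion driven by HIV-1 clade B AD8 Env; potency is for inhibitors of fusion seen as a drop in luminescence.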 In kind it is functional.
Series [14] in a line: Luminescence Cell-Based Dose Retest to Confirm Inhibitors of Cancer Stem Cells. [Related pubchem assays (depositor defined):AID2717, AID2721]. Type of series: functional. The note with it: Homo sapiens.
In series [15] the target is T1, Microphthalmia-associated transcription factor (Homo sapiens, UniProt O75030).
T1 sequence (O75030 whole entry): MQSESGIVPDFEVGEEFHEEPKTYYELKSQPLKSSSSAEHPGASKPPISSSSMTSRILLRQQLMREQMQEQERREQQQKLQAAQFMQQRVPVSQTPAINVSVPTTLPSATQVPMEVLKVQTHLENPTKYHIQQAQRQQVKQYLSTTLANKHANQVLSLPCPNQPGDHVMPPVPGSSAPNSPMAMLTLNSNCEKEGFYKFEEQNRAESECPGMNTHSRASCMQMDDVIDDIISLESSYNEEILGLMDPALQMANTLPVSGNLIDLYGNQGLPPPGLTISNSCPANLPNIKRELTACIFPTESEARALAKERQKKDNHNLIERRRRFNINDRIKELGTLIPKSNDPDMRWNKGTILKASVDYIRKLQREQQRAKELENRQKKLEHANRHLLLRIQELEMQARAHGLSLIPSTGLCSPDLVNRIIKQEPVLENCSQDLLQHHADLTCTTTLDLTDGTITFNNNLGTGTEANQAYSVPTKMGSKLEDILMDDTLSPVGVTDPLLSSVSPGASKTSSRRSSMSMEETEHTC
The experiment in a line: TRPM1 promoter luciferase signal decrease, dose response, MITF inhibitor project, cell-based, SK-MEL-5, cherry-picked, set 3 (AID 493073).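 Also: SK-MEL-5 melanoma cells with luciferase driven by the MITF target TRPM1 promoter.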 Type of series: functional.

The subject of series [16] is Vero. The experiment in a line: cells. Type of series: functional, cell-based. The conditions noted are these: Chlorocebus sabaeus.
For the next series, the system named is A-375. The experiment in a line: MITF: Counter assay: A375 proliferation Measured in Cell-Based System Using Plate Reader - 2084-03_Inhibitor_Dose_DryPowder_Activity. [Related pubchem assays (depositor defined):AID488944]. Type of series: functional. The note with it: Homo sapiens.
Series [17] concerns Vero. The experiment in a line: cells. In kind it is functional. The conditions noted are these: Chlorocebus sabaeus.
The target of the next series is Cytochrome P450 3A4 (Homo sapiens, UniProt P08684).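 Also: CYP3A4 tested as one member of a cytochrome P450 panel screen.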
Sequence of Cytochrome P450 3A4 (P08684 whole entry, the tested form may be a part): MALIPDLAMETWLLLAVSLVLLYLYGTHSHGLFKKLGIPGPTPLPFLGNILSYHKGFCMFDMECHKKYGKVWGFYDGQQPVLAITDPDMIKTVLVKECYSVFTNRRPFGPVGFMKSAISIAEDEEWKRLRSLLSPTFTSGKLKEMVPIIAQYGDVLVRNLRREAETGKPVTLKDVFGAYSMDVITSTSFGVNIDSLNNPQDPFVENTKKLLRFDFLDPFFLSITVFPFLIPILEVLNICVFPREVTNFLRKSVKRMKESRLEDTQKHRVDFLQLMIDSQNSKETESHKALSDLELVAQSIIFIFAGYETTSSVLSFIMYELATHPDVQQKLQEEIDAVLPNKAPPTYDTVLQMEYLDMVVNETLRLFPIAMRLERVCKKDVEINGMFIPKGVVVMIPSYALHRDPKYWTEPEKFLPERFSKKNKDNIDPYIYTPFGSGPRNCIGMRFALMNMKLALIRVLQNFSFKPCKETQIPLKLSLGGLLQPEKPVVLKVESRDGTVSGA
The nature of series [18]: inhibitors of HIV Env-driven cell fusion, dose response, cherry-pick (AID 652057). In kind it is functional, cell-based.
Series [19] is described as follows: off-target signal loss in HeLa-CEM21 co-culture – HeLa F-luc CTL cells, cherry-picked, counter-screen for HIV-1 Env fusion inhibitor project, dose response (AID 652040).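 Also: potency for signal decrease marking cytotoxic or nonspecific inhibition.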 In kind it is functional, cell-based. (In general: The purpose of a counterscreen is to sort out artefacts and off-target activity.)
Series [20] in a line: NIH-3T3 fibroblast cytotoxicity, dose response, cytotoxicity control, cell-based, fluorescence, Alamar Blue, secondary assay (AID 2327).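 Also: NIH-3T3 mouse fibroblasts cultured with fluconazole at 8 µg/mL.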 In kind it is functional. On the technique in general: Alamar Blue is a resazurin reagent that responds to reducing activity.
The subject of series [21] is Streptococcus sp. 'group A'. The experiment in a line: growth inhibition of control SK(-) GAS strain, dose response, counter-screen for streptokinase expression inhibitor project, luminescence, kanamycin, BacTiterGlo, confirmation (AID 1900). Type of series: functional, organism-based.
Series [22] in a line: C. albicans growth with fluconazole, confirmation, fluorescence, retest (AID 2467). Type of series: functional, cell-based.
Another series has as its system Streptococcus. The experiment in a line: Group A Streptococcus viability loss, dose response, counter-screen for streptokinase expression inhibitor project, luminescence, BacTiterGlo (AID 1915).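 Also: potency for reduction of bacterial viability or growth.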 Type of series: functional, organism-based.
For series [23], the target named is Heat shock protein HSP 90-alpha (Homo sapiens, UniProt P07900). In kind it is functional, organism-based.
The subject of series [24] is Vero. The experiment in a line: Vero cell cytotoxicity, cytotoxicity control for flavivirus capping enzyme inhibitors (AID 588742). Type of series: functional. The conditions noted are these: Chlorocebus sabaeus.

As to `CN(C)S(=O)(=O)c1cc(NC(=O)CSc2nn(-c3ccc(Cl)cc3)c(=S)s2)ccc1Cl`, the values for the EC50 in the series with HEK293 [1], in the series with HEK293 [5] and in the series on HEK293 [6] were 13.4 µM (active), > 59.7 µM (inactive) and > 59.7 µM (inactive), respectively. Also, the IC50 (commonly the point on the concentration scale where inhibition reaches its midpoint) in the series on HEK293 [2] was 5.23 µM (active); in the series on HEK293 [3], 11.2 µM (active); with HEK293 [4], 4.69 µM (active).

Regarding `c1ccc2c(c1)ncn2CCCCOc1ccc2c(c1)CCC2`, the results for the IC50 in series [7] and in series [8] were 2.69 µM (active) and 2.1 µM (active), respectively. In [9], the CC50 is > 40 µM (active). Also, the EC50 – broadly, the concentration giving half of the maximal effect – is 24.1 µM (active) in series [10] and 22.8 µM (active) in series [11]. Moreover, the AC50 – broadly, the concentration at which the activity in the assay is half-maximal – is 5.04 µM (active) in the series with INS1, 28.6 µM (active) in series [12] and 9.21 µM (active) in series [13].

Take `N#C/C(=C\C=C\c1ccccc1[N+](=O)[O-])C(=O)NC1CCCCC1`: the AC50 is 5.33 µM (active) in [14], 7.8 µM (active) in series [15] and 25.9 µM (active) with A-375. The IC50 in the series on Vero [16] was 17 µM (active). Also, in the series with Vero [17], the CC50 is > 25 µM (active). The EC50 with HEK293 [5] and in the series with HEK293 [6] was > 59.7 µM (inactive) each time.

Turning to `CN(C)c1ncc2nc(-c3ccc(Cl)cc3)c(=O)n(Cc3ccc(F)cc3)c2n1`, on Cytochrome P450 3A4, the AC50 entry is given as “inconclusive”.

In the case of `COc1ccc(C(C)=O)cc1CC1(C)C(=O)Nc2ccc(-c3ccccc3OC)cc21` (stereo not given), the AC50 in series [18] is 0.29 µM (active); in [12], 0.627 µM (active); in series [19], 0.397 µM (active); in series [13], 2.02 µM (active). Moreover, the EC50 in the series on HEK293 [5] and with HEK293 [6] was > 59.6 µM (inactive) throughout.

With `CC(=O)NC(c1ccccc1)c1cc(Cl)c2cccnc2c1O` (stereo not given), the EC50 in series [20] was 4.24 µM (active); in [21], 1.73 µM (active); in [22] it was 0.514 µM (active); with Streptococcus it was 2.71 µM (active). Moreover, the AC50 was 3.79 µM (active) in series [23] and 1.2 µM (active) in the series on INS1. For the same compound, the CC50 in the series on Vero [24] is 6.04 µM (active).
